According to patent publication US5604242A, “Heterocyclic chemistry” (Novo Nordisk A/S, priority 1993, dated 1997):
Counter-ions that a name gives are not always drawn.

Legend:
GABA uptake = settings: cited from earlier work; for oral activity as inhibitor of GABA uptake: Yunger et al., J.Pharm.Exp.Ther. 1984, 228, 109
[1] = background, in words; cited from earlier work
[^3 H]-GABA uptake = in vitro inhibition of [3H]-GABA uptake (method of Fjalland), rat cortical tissue homogenate; type: biochemical, Male wistar rat; settings: 40 mM tris HCl buffer pH 7.5, 60 minutes at 30° C.
Procedure: Values for in vitro inhibition of [^3 H]-GABA uptake for the invention compounds were assessed essentially by the method of Fjalland (Acta Pharmacol. Toxicol. 1978, 42, 73-76). Male wistar rat cortical tissue was gently homogenized by hand using a glass/PTFE homogenizer in 10 volumes of 0.32M sucrose. Incubation was performed in a 40 mM tris HCl buffer (pH 7.5 at 30° C.) containing […], 4 mM MgSO4, […] and 10 mM glucose, for 60 minutes at 30° C. Values for inhibition of GABA uptake for some representative compounds are recorded in Table I.

| Compound | IC50 ([^3 H]-GABA uptake) | oral activity as inhibitor of GABA uptake (GABA uptake) | other results |
| --- | --- | --- | --- |
| O=C(O)C1CCCNC1 (stereo not drawn) [nipecotic acid, 3-piperidinecarboxylic acid] | – | – | inhibition of GABA uptake from the synaptic cleft into presynaptic nerve terminals and glial cells (GABA uptake; background, in words): well-known and potent inhibitor of GABA uptake; ability to cross the blood-brain barrier [1]: unable to cross the blood-brain barrier |
| O=C(O)C1CCCN(CCC=C(c2ccccc2)c2ccccc2)C1 (stereo not drawn) [SK&F 89976A, N-(4,4-diphenyl-3-buten-1-yl)nipecotic acid] | – | orally active inhibitors of GABA uptake | – |
| O=C(O)[C@@H]1CCCN(CCOCc2ccccc2Cc2ccccc2)C1 [Example 2, (R)-1-(2-(2-Benzylbenzyloxy)ethyl)-3-piperidinecarboxylic acid hydrochloride] | 325 nM | – | – |
| O=C(O)C1=CCCN(CCC=C(c2ccccc2)c2ccccc2)C1 [SK&F 100330A, N-(4,4-diphenyl-3-buten-1-yl)guvacine] | – | orally active inhibitors of GABA uptake | – |
| O=C(O)CC1CCN(CCC=C(c2ccccc2)c2ccccc2)C1 (stereo not drawn) [SK&F 100561, N-(4,4-diphenyl-3-buten-1-yl)-homo-β-proline] | – | orally active inhibitors of GABA uptake | – |
| O=C(O)C1CCCN(CCOCCCc2ccccc2)C1 (stereo not drawn) [Example 1, 1-(2-(3-Phenyl-1-propyloxy)ethyl)-3-piperidinecarboxylic acid hydrochloride] | 4500 nM | – | – |
| O=C(O)C1CCCN(CCC=C(c2ccccc2)c2cccs2)C1 (stereo not drawn) [SK&F 100604J, N-(4-phenyl-4-(2-thienyl)-3-buten-1-yl)nipecotic acid] | – | orally active inhibitors of GABA uptake | – |

Second part, led by results:

| IC50 ([^3 H]-GABA uptake) | Compound | oral activity as inhibitor of GABA uptake (GABA uptake) | other results |
| --- | --- | --- | --- |
| 338 nM | O=C(O)[C@@H]1CCCN(CCOCc2ccccc2-c2ccccc2)C1 [Example 4, (R)-1-(2-(2-Phenylbenzyloxy)ethyl)-3-piperidinecarboxylic acid hydrochloride] | – | – |
| 2000 nM | O=C(O)[C@@H]1CCCN(CCOC/C(=C\c2ccccc2)c2ccccc2)C1 [Example 6, Z-(R)-1-(2-((2,3-Diphenyl-2-propen-1-yl)oxy)ethyl)-3-piperidinecarboxylic acid hydrochloride] | – | – |
| 6400 nM | O=C(O)[C@@H]1CCCN(CCOCc2ccc3ccccc3c2-c2ccccc2)C1 [Example 3, (R)-1-(2-((1-Phenyl-2-naphthyl)methoxy)ethyl)-3-piperidinecarboxylic acid hydrochloride] | – | – |
| 495 nM | O=C(O)[C@@H]1CCCN(CCOC/C(=C/c2ccccc2)c2ccccc2)C1 [Example 5, E-(R)-1-(2-((2,3-Diphenyl-2-propen-1-yl)oxy)ethyl)-3-piperidinecarboxylic acid hydrochloride] | – | – |
